From the supplement of paper PMC11208160 come the findings set out here.
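Further: IS621 recombinase and bridge RNA in Escherichia coli cells.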

A short description of the data set: recombinant barcode read abundance after kanamycin selection (control-corrected) (log10(CPM+1)); higher = more efficient recombination; sequences stand for … in AGTGCAGAGAAAATCGGCCAGTTTTCTCTGCCTGCAGTCCGCATGCCGT…AGATTTATGCAGCGGACTGCCTTTCTCCCAAAGTGATAAACCGGACAGTATCATGGACCGGTTTTCCCGGTAATCCGTATTTGCAAGGTTGGTTTCACT; site = the 11-nt target. An outline of the steps:
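Recombination efficiency comes from barcode counts at recombinant junctions, converted to counts per million, averaged and corrected against the control. Values appear as log10(CPM+1). They were obtained from a pooled E. coli screen in which each oligo paired a target with an IS621 bridge RNA target-binding loop, and cells were plated in duplicate on chloramphenicol/ampicillin LB agar or on chloramphenicol/ampicillin/kanamycin with 0.1 mM IPTG.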
On to “GTTGGGACTTGGGTTCTAACCTGTTGCCT (site GTTGGAACTAC)”, for which the “recombinant barcode read abundance (log10)” value turned out to be 0.109.
The value for “GTTGGGACTTGGGTTCTAACCTGTTGCCT (site GTTGGGACTAG)” was 2; that for “GTTGGGGCTTGGGTTCTAACCTGTTGCGG (site CTTGGGCCTCC)” was 0.019.
As for “GTTGGGGCTTGGGTTCTAACCTGTTGCGG (site GTTGGGGCTCC)”, the “recombinant barcode read abundance (log10)” value was 2.
For “GTTGGTCCTTGGGTTCTAACCTGTTGCCT (site GTGGTTCCTAG)” the value was 0.114.
The value for “GTTGGTCCTTGGGTTCTAACCTGTTGCCT (site GTTGGTCCTAG)” was 1.75.
As to “GTTTAATCTTGGGTTCTAACCTGTTGCCT (site GTTTAATCTAG)”, the “recombinant barcode read abundance (log10)” value came to 0.216.
With “GTTTAATCTTGGGTTCTAACCTGTTGCCT (site GTTTAGTCTAG)”, the “recombinant barcode read abundance (log10)” value amounted to 0.233.
Consider “GTTTATACTTGGGTTCTAACCTGTTGCCA (site AGAGTAGCTGT)”, for which the “recombinant barcode read abundance (log10)” value came to 0.0898.
For “GTTTATACTTGGGTTCTAACCTGTTGCCA (site GTTTATACTTG)” the value was 0.41; for “GTTTCACCTTGGGTTCTAACCTGTTGCCT (site GTTACACCTAG)”, 0.128.
Consider “GTTTCACCTTGGGTTCTAACCTGTTGCCT (site GTTTCACCTAG)”, for which the “recombinant barcode read abundance (log10)” value was determined as 0.491.
“GTTTCGACTTGGGTTCTAACCTGTTGCCT (site GTTTCGACTAG)”: the “recombinant barcode read abundance (log10)” value is 0.128.
Take “GTTTCGACTTGGGTTCTAACCTGTTGCCT (site GTTTCGTCTAG)”: the “recombinant barcode read abundance (log10)” value worked out at 0.173.
For the sequence “GTTTCGACTTGGGTTCTAACCTGTTGCTA (site GTTTCGACTTA)”, the “recombinant barcode read abundance (log10)” value worked out at 0.238.
Regarding “GTTTCGACTTGGGTTCTAACCTGTTGCTA (site TCGGATGCTAT)”, the “recombinant barcode read abundance (log10)” value was 0.188.
The value for “GTTTCGGCTTGGGTTCTAACCTGTTGCCT (site GTTACGGCTAG)” was 0.041.
On to “GTTTCGGCTTGGGTTCTAACCTGTTGCCT (site GTTCCGGCTAG)”, for which the “recombinant barcode read abundance (log10)” value was found to be 0.357.
For “GTTTCGGCTTGGGTTCTAACCTGTTGCCT (site GTTGCGGCTAG)” the value was 0.101; for “GTTTCGGCTTGGGTTCTAACCTGTTGCCT (site GTTTCGGCTAG)”, 0.342.
Take “GTTTGGCCTTGGGTTCTAACCTGTTGCTT (site GTTTGACCTAA)”: the “recombinant barcode read abundance (log10)” value turned out to be 0.
The value for “GTTTGGCCTTGGGTTCTAACCTGTTGCTT (site GTTTGCCCTAA)” was 0.154; that for “GTTTGGCCTTGGGTTCTAACCTGTTGCTT (site GTTTGGCCTAA)” was 0.541.
Regarding “GTTTGGCCTTGGGTTCTAACCTGTTGCTT (site GTTTGTCCTAA)”, the “recombinant barcode read abundance (log10)” value worked out at 0.167.
For “TAAAACCCTTGGGTTCTAACCTGTTGCAT (site CCGCGGACTTA)” the value was 0.15; for “TAAAACCCTTGGGTTCTAACCTGTTGCAT (site TAAAACCCTAT)”, 0.713; for “TAAAAGGCTTGGGTTCTAACCTGTTGCCT (site TAAAAGACTAG)”, 0.102.
Turning to “TAAAAGGCTTGGGTTCTAACCTGTTGCCT (site TAAAAGCCTAG)”, the “recombinant barcode read abundance (log10)” value amounted to 0.0288.
The value for “TAAAAGGCTTGGGTTCTAACCTGTTGCCT (site TAAAAGGCTAG)” was 0.0132.
For “TAAAAGGCTTGGGTTCTAACCTGTTGCCT (site TAAAAGTCTAG)” the value was 0.142; for “TAAAATACTTGGGTTCTAACCTGTTGCCT (site TAAAATACTAG)”, 0.1; for “TAAAATACTTGGGTTCTAACCTGTTGCCT (site TAGATTACTAG)”, 0.272.
The value for “TAACACTCTTGGGTTCTAACCTGTTGCTT (site GAACACTCTCA)” was 0.105.
For the sequence “TAACACTCTTGGGTTCTAACCTGTTGCTT (site TAACACTCTAA)”, the “recombinant barcode read abundance (log10)” value stood at 1.51.
Regarding “TAACGTACTTGGGTTCTAACCTGTTGCAT (site TAACATACTAT)”, the “recombinant barcode read abundance (log10)” value came out at 0.0677.
For “TAACGTACTTGGGTTCTAACCTGTTGCAT (site TAACCTACTAT)” the value was 0.135; for “TAACGTACTTGGGTTCTAACCTGTTGCAT (site TAACGTACTAT)”, 0.696.
Regarding “TAACGTACTTGGGTTCTAACCTGTTGCAT (site TAACTTACTAT)”, the “recombinant barcode read abundance (log10)” value stood at 0.103.
For “TAACTAGCTTGGGTTCTAACCTGTTGCTA (site GTGTATACTAT)” the value was 0.212; for “TAACTAGCTTGGGTTCTAACCTGTTGCTA (site TAACTAGCTTA)”, 0.141; for “TAAGGAGCTTGGGTTCTAACCTGTTGCCT (site TAAGGAGCTAG)”, 1.39.
Turning to “TAAGGAGCTTGGGTTCTAACCTGTTGCCT (site TAGGGCGCTAG)”, the “recombinant barcode read abundance (log10)” value came to 0.0289.
For “TAAGGGACTTGGGTTCTAACCTGTTGCTA (site CGCCCTTCTAG)” the value was 0.239; for “TAAGGGACTTGGGTTCTAACCTGTTGCTA (site TAAGGGACTTA)”, 2.26.
For “TAAGGTACTTGGGTTCTAACCTGTTGCTT (site TAAAGTACTAA)” the value was 0.0963.
The value for “TAAGGTACTTGGGTTCTAACCTGTTGCTT (site TAACGTACTAA)” was 0.151; that for “TAAGGTACTTGGGTTCTAACCTGTTGCTT (site TAAGGTACTAA)” was 1.26.
Take “TAAGGTACTTGGGTTCTAACCTGTTGCTT (site TAATGTACTAA)”: the “recombinant barcode read abundance (log10)” value amounted to 0.0967.
In the case of “TAAGGTCCTTGGGTTCTAACCTGTTGCAG (site TAAGGTCCTCT)”, the “recombinant barcode read abundance (log10)” value is 2.47.
For the sequence “TAAGGTCCTTGGGTTCTAACCTGTTGCAG (site TAGGGTCCTCC)”, the “recombinant barcode read abundance (log10)” value worked out at 0.158.
The value for “TAAGTCACTTGGGTTCTAACCTGTTGCCT (site GAAGTCACTAG)” was 0.0452.
“TAAGTCACTTGGGTTCTAACCTGTTGCCT (site TAAGTCACTAG)”: the “recombinant barcode read abundance (log10)” value stood at 1.9.
The value for “TAAGTGTCTTGGGTTCTAACCTGTTGCCT (site TAAGTGTCTAG)” was 2.56; that for “TAAGTGTCTTGGGTTCTAACCTGTTGCCT (site TACGTGTCTAG)” was 0.171; that for “TAAGTGTCTTGGGTTCTAACCTGTTGCCT (site TAGGTGTCTAG)” was 0.314.
For “TAAGTGTCTTGGGTTCTAACCTGTTGCCT (site TATGTGTCTAG)” the value was 1.03; for “TAATGAACTTGGGTTCTAACCTGTTGCCT (site TAATGAACTAG)”, 0.32.
Turning to “TAATGAACTTGGGTTCTAACCTGTTGCCT (site TAATGTACTAG)”, the “recombinant barcode read abundance (log10)” value stood at 0.216.
The value for “TAATGACCTTGGGTTCTAACCTGTTGCAT (site TAATGACCTAA)” was 0.0652.
“TAATGACCTTGGGTTCTAACCTGTTGCAT (site TAATGACCTAT)”: the “recombinant barcode read abundance (log10)” value came to 1.67.
The value for “TAATGGTCTTGGGTTCTAACCTGTTGCAT (site TAATGGTCTAT)” was 1.61; that for “TAATGGTCTTGGGTTCTAACCTGTTGCAT (site TAATGTTCTAT)” was 0.065; that for “TAATTGCCTTGGGTTCTAACCTGTTGCCT (site TAATTGCCTAG)” was 0.645.
For “TAATTGCCTTGGGTTCTAACCTGTTGCCT (site TACTTGCCTAG)” the value was 0.324.
With “TAATTGCCTTGGGTTCTAACCTGTTGCCT (site TAGTTGCCTAG)”, the “recombinant barcode read abundance (log10)” value worked out at 0.474.
The value for “TAATTGCCTTGGGTTCTAACCTGTTGCCT (site TATTTGCCTAG)” was 0.0725.
For “TACAAGCCTTGGGTTCTAACCTGTTGCCT (site TACAAGCCTAG)” the value was 0.338; for “TACAAGCCTTGGGTTCTAACCTGTTGCCT (site TAGAAGCCTCG)”, 0.0913.
For “TACAAGGCTTGGGTTCTAACCTGTTGCGG (site TACAAGGCTCC)” the value was 2.68; for “TACAAGGCTTGGGTTCTAACCTGTTGCGG (site TACAAGTCTCC)”, 0.292.
Turning to “TACACAGCTTGGGTTCTAACCTGTTGCCT (site TAAACAGCTAG)”, the “recombinant barcode read abundance (log10)” value came out at 0.176.
“TACACAGCTTGGGTTCTAACCTGTTGCCT (site TACACAGCTAG)”: the “recombinant barcode read abundance (log10)” value was 0.909.
With “TACACAGCTTGGGTTCTAACCTGTTGCCT (site TAGACAGCTAG)”, the “recombinant barcode read abundance (log10)” value worked out at 0.249.
Take “TACACAGCTTGGGTTCTAACCTGTTGCCT (site TATACAGCTAG)”: the “recombinant barcode read abundance (log10)” value came out at 0.149.
“TACACTACTTGGGTTCTAACCTGTTGCCG (site TACACGACTCC)”: the “recombinant barcode read abundance (log10)” value was 0.0364.
As to “TACACTACTTGGGTTCTAACCTGTTGCCG (site TACACTACTCG)”, the “recombinant barcode read abundance (log10)” value stood at 0.177.
The value for “TACATCCCTTGGGTTCTAACCTGTTGCCA (site TACATCCCTAG)” was 0.5.
